Test results taken from PubChem BioAssay AID328 (DTP/NCI, 2004).
Inconclusive results and toxic doses are left out. Rule for the calls: active = survival T/C of 150% or more; inactive = T/C below 125% in these data.

Test system: BDF1 mice, P388 leukemia ip, median survival T/C
Assay: NCI In Vivo Anticancer Drug Screen. Data for tumor model P388 Leukemia (intraperitoneal) in B6D2F1 (BDF1) mice
Conditions: endpoint: median survival time, higher = longer survival
Procedure, shortened: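 In tumour-bearing mice, survival after compound treatment is set against the vehicle group and given as a quotient.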

[1] = dose: 100.0 mg/kg/injection, schedule: Q04DX003 (ip), vehicle: saline with Tween-80
[2] = dose: 200.0 mg/kg/injection, schedule: Q04DX003 (ip), vehicle: saline with Tween-80
[3] = dose: 50.0 mg/kg/injection, schedule: Q01DX009 (ip), vehicle: saline with Tween-80
[4] = dose: 100.0 mg/kg/injection, schedule: Q01DX009 (ip), vehicle: saline with Tween-80
[5] = dose: 200.0 mg/kg/injection, schedule: Q01DX009 (ip), vehicle: saline with Tween-80
[6] = dose: 3.12 mg/kg/injection, schedule: Q01DX009 (ip), vehicle: saline
[7] = dose: 6.25 mg/kg/injection, schedule: Q01DX009 (ip), vehicle: saline
[8] = dose: 12.5 mg/kg/injection, schedule: Q01DX009 (ip), vehicle: saline
[9] = dose: 50.0 mg/kg/injection, schedule: Q01DX009 (ip), vehicle: saline
[10] = dose: 25.0 mg/kg/injection, schedule: Q01DX009 (ip), vehicle: saline
[11] = dose: 400.0 mg/kg/injection, schedule: Q04DX003 (ip), vehicle: saline with Tween-80

Measured: T/C

CC(Cc1ccccc1)CC(C(=O)O)C(=O)O (stereo unspecified)
inactive: [1] 100 % of control | [2] 99 % of control

C/C(CCCCl)=N/N=C(N)N
inactive: dose: 7.03 mg/kg/injection, schedule: Q01DX001 (ip), vehicle: saline 104 % of control | dose: 14.06 mg/kg/injection, schedule: Q01DX001 (ip), vehicle: saline 100 % of control | dose: 18.75 mg/kg/injection, schedule: Q01DX009 (ip), vehicle: saline 115 % of control | dose: 18.75 mg/kg/injection, schedule: Q04DX003 (ip), vehicle: saline 109 % of control | dose: 37.5 mg/kg/injection, schedule: Q01DX009 (ip), vehicle: saline 115 % of control | dose: 37.5 mg/kg/injection, schedule: Q04DX003 (ip), vehicle: saline 100 % of control | dose: 50.0 mg/kg/injection, schedule: Q04DX003 (ip), vehicle: saline 122 % of control | dose: 75.0 mg/kg/injection, schedule: Q01DX009 (ip), vehicle: saline 115 % of control | dose: 75.0 mg/kg/injection, schedule: Q04DX003 (ip), vehicle: saline 100 % of control

CC(C)C1OC(=O)C=C2C3(C)CC=CC4(C)C(=O)OC(C43)C3OC213 (stereo unspecified)
inactive: dose: 5.0 micrograms/kg/injection, schedule: Q01DX009 (ip), vehicle: saline + alcohol 109 % of control | dose: 20.0 micrograms/kg/injection, schedule: Q01DX009 (ip), vehicle: saline + alcohol 100 % of control | dose: 80.0 micrograms/kg/injection, schedule: Q01DX009 (ip), vehicle: saline + alcohol 90 % of control | dose: 250.0 micrograms/kg/injection, schedule: Q01DX009 (ip), vehicle: saline + alcohol 109 % of control | dose: 1000.0 micrograms/kg/injection, schedule: Q01DX009 (ip), vehicle: saline + alcohol 109 % of control | dose: 4000.0 micrograms/kg/injection, schedule: Q01DX009 (ip), vehicle: saline + alcohol 104 % of control

CS(=O)CC(O)(c1ccccc1)c1ccccn1 (stereo unspecified)
inactive: [3] 103 % of control | [4] 110 % of control | [5] 100 % of control

O=[N+]([O-])c1ccc(Nc2ccncc2)cc1
inactive: dose: 100.0 mg/kg/injection, schedule: Q04DX003 (ip), vehicle: saline 104 % of control | dose: 200.0 mg/kg/injection, schedule: Q04DX003 (ip), vehicle: saline 95 % of control | dose: 400.0 mg/kg/injection, schedule: Q04DX003 (ip), vehicle: saline 104 % of control

CC(=O)OC1C=CCC23C(=O)C=CC(=O)C12C(=O)c1ccccc1C3=O (stereo unspecified)
inactive: dose: 1.56 mg/kg/injection, schedule: Q01DX009 (ip), vehicle: saline 102 % of control | [6] 93 % of control | [7] 95 % of control | [8] 95 % of control | [9] 107 % of control

CCCCCCCCCC[N+]1([O-])CCCCC1
inactive: [8] 98 % of control | [10] 91 % of control | [9] 94 % of control

C=C(C)C(=O)Oc1ccc([N+](=O)[O-])cc1
inactive: [3] 96 % of control | [4] 113 % of control | [5] 98 % of control

OC12CCCC3CCCC(CCC1)C32 (stereo unspecified)
inactive: dose: 100.0 mg/kg/injection, schedule: Q04DX003 (ip), vehicle: Klucel (hydroxypropylcellulose) (HPC) 100 % of control | dose: 200.0 mg/kg/injection, schedule: Q04DX003 (ip), vehicle: Klucel (hydroxypropylcellulose) (HPC) 100 % of control | dose: 400.0 mg/kg/injection, schedule: Q04DX003 (ip), vehicle: Klucel (hydroxypropylcellulose) (HPC) 100 % of control

C1=CC2c3ccccc3C1c1ccccc12
inactive: dose: 100.0 mg/kg/injection, schedule: Q01DX007 (sc), vehicle: olive oil, sesame oil, peanut oil 91 % of control | dose: 100.0 mg/kg/injection, schedule: Q04DX003 (sc), vehicle: olive oil, sesame oil, peanut oil 100 % of control | dose: 200.0 mg/kg/injection, schedule: Q01DX007 (sc), vehicle: olive oil, sesame oil, peanut oil 104 % of control | dose: 200.0 mg/kg/injection, schedule: Q04DX003 (sc), vehicle: olive oil, sesame oil, peanut oil 90 % of control | dose: 400.0 mg/kg/injection, schedule: Q01DX007 (sc), vehicle: olive oil, sesame oil, peanut oil 95 % of control | dose: 400.0 mg/kg/injection, schedule: Q04DX003 (sc), vehicle: olive oil, sesame oil, peanut oil 110 % of control

CC(C)=NNS(=O)(=O)c1ccccc1
inactive: dose: 50.0 mg/kg/injection, schedule: Q04DX003 (ip), vehicle: saline with Tween-80 95 % of control | [1] 90 % of control | [2] 95 % of control

N=C(N)c1ccc(OCCCOc2ccc(C(=N)N)cc2Br)c(Br)c1
inactive: dose: 2.2 mg/kg/injection, schedule: Q01DX009 (ip), vehicle: saline 100 % of control | dose: 3.3 mg/kg/injection, schedule: Q01DX009 (ip), vehicle: saline 118 % of control | dose: 5.0 mg/kg/injection, schedule: Q01DX009 (ip), vehicle: saline 118 % of control | dose: 25.0 mg/kg/injection, schedule: Q01DX009 (ip), vehicle: saline sonified 122 % of control

O=C(O)C1CC[N-]CC1.O=C(O)C1CC[N-]CC1.[Cl][Pt+2]([Cl])([Cl])[Cl]
inactive: [6] 109 % of control | [7] 90 % of control | [10] 94 % of control | [9] 100 % of control

OCCC1=CCC1
inactive: [3] 101 % of control | [4] 101 % of control | [5] 111 % of control

C=CCc1ccccc1C=O
inactive: [1] 97 % of control | [2] 95 % of control | [11] 97 % of control

CN(Cc1ccccc1)/N=N/c1nc[nH]c1C(N)=O
inactive: dose: 25.0 mg/kg/injection, schedule: Q01DX009 (ip), vehicle: Klucel (hydroxypropylcellulose) (HPC) 95 % of control | dose: 50.0 mg/kg/injection, schedule: Q01DX009 (ip), vehicle: Klucel (hydroxypropylcellulose) (HPC) 110 % of control | dose: 100.0 mg/kg/injection, schedule: Q01DX009 (ip), vehicle: Klucel (hydroxypropylcellulose) (HPC) 110 % of control | dose: 200.0 mg/kg/injection, schedule: Q01DX009 (ip), vehicle: Klucel (hydroxypropylcellulose) (HPC) 100 % of control

OC(CBr)c1ccc(Cl)cc1 (stereo unspecified)
inactive: [1] 100 % of control | [2] 95 % of control | [11] 95 % of control

Cc1ccc(S(=O)(=O)c2ccc(S(=O)(=O)c3ccc(C)cc3)c3c2no[n+]3[O-])cc1
inactive: dose: 15.0 mg/kg/injection, schedule: Q01DX009 (ip), vehicle: saline with Tween-80 107 % of control | dose: 30.0 mg/kg/injection, schedule: Q01DX009 (ip), vehicle: saline with Tween-80 112 % of control | dose: 60.0 mg/kg/injection, schedule: Q01DX009 (ip), vehicle: saline with Tween-80 112 % of control

CC(=O)Nc1nncs1
inactive: dose: 100.0 mg/kg/injection, schedule: Q01DX009 (ip), vehicle: saline sonified 113 % of control | dose: 200.0 mg/kg/injection, schedule: Q01DX009 (ip), vehicle: saline sonified 109 % of control

O=[N+]([O-])c1cc(S(=O)(=O)NCc2ccco2)ccc1N/N=C/c1ccccn1
inactive: dose: 0.78 mg/kg/injection, schedule: Q01DX009 (ip), vehicle: saline with Tween-80 99 % of control | dose: 1.56 mg/kg/injection, schedule: Q01DX009 (ip), vehicle: saline with Tween-80 99 % of control | dose: 3.12 mg/kg/injection, schedule: Q01DX009 (ip), vehicle: saline with Tween-80 95 % of control

Cc1ccc2c(c1)Oc1ccccc1N=C2
inactive: [3] 97 % of control | [4] 103 % of control | [5] 97 % of control

CN(C)C=Nc1cc(Cl)c(Cl)cc1Cl
inactive: [9] 100 % of control | dose: 100.0 mg/kg/injection, schedule: Q01DX009 (ip), vehicle: saline 110 % of control | dose: 200.0 mg/kg/injection, schedule: Q01DX009 (ip), vehicle: saline 111 % of control
